According to patent US8742106B2 (Novartis AG, priority 2009, dated 2014):

Assays:
human orexin 2 receptors [1] = target: T1, human orexin 2 receptors (Homo sapiens (Human), UniProt O43614); assay: Radioligand Binding Assay I ([125I]orexin A competition, cell membranes); conditions: read-out: binding I hOx2R Kd
Protocol: (§1) Radioligand Binding Assay I
(§2) For crude cell membrane preparations, cells (CHO, Chinese hamster ovary or HEK, human embryonic kidney) expressing human orexin 1 or human orexin 2 receptors, were washed with HEPES (10 mM, pH 7.5), scraped off the culture plates with the same buffer, and centrifuged at 4° C. for 5 min at 2500×g. The cell pellet was either stored at −80° C. or used directly. Before the experiments, cell membranes were re-suspended in binding assay buffer (10 mM HEPES, 0.5% (w/v) bovine serum albumin, pH 7.5) by homogenisation with a Polytron homogeniser at 50 Hz for 20 s. Cell membranes were also used as made available by commercial providers.
(§3) In initial saturation experiments (to calculate Bmax), cell homogenates (150 μl) were incubated with 25-300 pM of the radioligand ([^125I]orexin A, 50 μl), 8 concentrations in triplicates in the presence or absence Orexin A (1 μM, 50 μl) to define non specific binding. Bound radioactivity was measured, and data were analysed with the program XLFIT or Graphpad Prism. Protein concentration was determined according to the Bradford/BioRad Protein Assay Kit.
(§4) In competition experiments, cell homogenates (150 μl) were incubated in assay buffer (10 mM HEPES, pH 7.5, 0.5% (w/v) bovine serum albumin, 5 mM MgCl2, 1 mM CaCl2, and tween 0.05%) for 1 h at room temperature with about 100 pM of the radioligand ([^125I]orexin A, 2100 Ci/mmole, 50 μl), and with various concentrations of compounds of the invention (50 μl) in triplicates; non-specific binding was determined in the presence of Orexin A (1 μM). Reactions were terminated by vacuum filtration, 3 washes of ice cold wash buffer (Tris-HCl pH 7.4/10 mM, with NaCl 154 mM).

human orexin 1 receptors [2] = target: T2, human orexin 1 receptors (Homo sapiens (Human), UniProt O43613); assay: as above; conditions: read-out: binding I hOx1R Kd
T2 sequence (O43613 whole entry): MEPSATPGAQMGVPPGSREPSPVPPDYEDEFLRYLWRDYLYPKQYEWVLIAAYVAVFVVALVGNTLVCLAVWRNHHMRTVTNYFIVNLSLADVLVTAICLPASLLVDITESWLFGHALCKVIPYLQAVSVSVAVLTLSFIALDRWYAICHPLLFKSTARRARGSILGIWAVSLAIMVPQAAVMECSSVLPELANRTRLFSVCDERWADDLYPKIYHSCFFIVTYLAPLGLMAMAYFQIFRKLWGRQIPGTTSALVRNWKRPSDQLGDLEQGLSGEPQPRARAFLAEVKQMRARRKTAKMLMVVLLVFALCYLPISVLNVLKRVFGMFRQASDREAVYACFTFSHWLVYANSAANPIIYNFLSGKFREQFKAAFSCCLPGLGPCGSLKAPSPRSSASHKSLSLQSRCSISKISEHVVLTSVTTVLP
Protocol: as §1, §2, §3, §4

human orexin 1 receptors [3] = target: T2, human orexin 1 receptors; assay: Calcium Accumulation in Cells (FLIPR), antagonism of orexin A; assay type: cell-based; conditions: antagonism of orexin A, Cheng-Prusoff corrected; read-out: FLIPR hOx1R Ki
human orexin 2 receptors [4] = target: T1, human orexin 2 receptors; assay: as above; assay type: cell-based; conditions: antagonism of orexin A, Cheng-Prusoff corrected; read-out: FLIPR hOx2R Ki
Method in brief: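 Cells expressing human orexin 2 receptor, loaded with Fluo4-AM (2 μM) plus probenecid (0.1 mM) for 1 h, then washed. Antagonism read as inhibition of the orexin A calcium fluorescence signal (FLIPR).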

human orexin 2 receptors [5] = target: T1, human orexin 2 receptors; assay: Radioligand Binding Assay II ([3H]-SB649868 competition, cell membranes); conditions: read-out: binding II hOx2R Kd
Protocol: (§5) Radioligand Binding Assay II
as §2
(§6) Bound radioactivity was measured, and data were analysed with the program XLFIT or Graphpad Prism. Protein concentration was determined according to the Bradford/BioRad Protein Assay Kit.
as §4, with “1 nM” for “100 pM”, “[^3H]-SB649868, 66” for “([^125I]orexin A, 2100”, “almorexant (10” for “Orexin A (1”

human orexin 1 receptors [6] = target: T2, human orexin 1 receptors; assay: as above; conditions: read-out: binding II hOx1R Kd
Protocol: as §5, §2, §6
as §4, with “1 nM” for “100 pM”, “[^3H]-SB649868, 66” for “([^125I]orexin A, 2100”, “almorexant (10” for “Orexin A (1”, “mM). Competition data is expressed in Table 2 as Kd [μM].” for “mM).”

T1 sequence (O43614 whole entry): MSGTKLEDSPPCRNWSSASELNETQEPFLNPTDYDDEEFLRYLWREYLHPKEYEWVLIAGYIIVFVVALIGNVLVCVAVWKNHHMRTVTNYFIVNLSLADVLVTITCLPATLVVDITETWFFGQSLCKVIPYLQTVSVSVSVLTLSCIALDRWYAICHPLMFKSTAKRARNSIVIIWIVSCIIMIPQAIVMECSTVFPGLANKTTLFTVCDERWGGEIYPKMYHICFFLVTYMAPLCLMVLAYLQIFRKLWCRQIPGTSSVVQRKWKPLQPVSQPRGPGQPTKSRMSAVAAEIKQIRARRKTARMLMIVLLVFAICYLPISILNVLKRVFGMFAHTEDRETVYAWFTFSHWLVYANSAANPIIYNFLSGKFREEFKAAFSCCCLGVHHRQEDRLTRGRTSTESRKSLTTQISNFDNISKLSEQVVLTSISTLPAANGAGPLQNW

| Structure (SMILES) | Kd (human orexin 2 receptors [1]) | Kd (human orexin 1 receptors [2]) | Ki (human orexin 1 receptors [3]) | Ki (human orexin 2 receptors [4]) | Kd (human orexin 2 receptors [5]) | Kd (human orexin 1 receptors [6]) |
| --- | --- | --- | --- | --- | --- | --- |
| C[C@H](NC(=O)COc1cc(C(F)(F)F)c2c(-c3ccccc3)nn(C)c2n1)c1ccccc1 [Example 1.17, (S)-2-(1-methyl-3-phenyl-4-(trifluoromethyl)-1H-pyrazolo[3,4-b]pyridin-6-yloxy)-N-(1-phenylethyl)acetamide] | 121 nM | 64 nM | 175 nM | 108 nM |  |  |
| Cc1cccc(-c2nn(C)c3nc(OCC(=O)N[C@@H](C)c4ccccc4)cc(C(F)(F)F)c23)c1 [Example 1.24, (S)-2-(1-methyl-3-m-tolyl-4-(trifluoromethyl)-1H-pyrazolo[3,4-b]pyridin-6-yloxy)-N-(1-phenylethyl)acetamide] | 153 nM | 48 nM | 54 nM | 87 nM |  |  |
| Cc1nn(C)c(C)c1C(C)NC(=O)COc1cc(C(F)(F)F)c2c(-c3ccccc3)nn(C)c2n1 (stereo not shown) [Example 1.70, 2-(1-methyl-3-phenyl-4-(trifluoromethyl)-1H-pyrazolo[3,4-b]pyridin-6-yloxy)-N-(1-(1,3,5-trimethyl-1H-pyrazol-4-yl)ethyl)acetamide] | 50 nM | 26 nM | 8 nM | 10 nM |  |  |
| COc1ccc([C@H](C)NC(=O)COc2cc(C)c3c(C4CC4)nn(C)c3n2)cc1 [Example 1.71, (S)-2-(3-cyclopropyl-1,4-dimethyl-1H-pyrazolo[3,4-b]pyridin-6-yloxy)-N-(1-(4-methoxyphenyl)ethyl)acetamide] | 63 nM | 105 nM | 145 nM | 88 nM |  |  |
| Cc1ccc2c(n1)CC[C@@H]2NC(=O)COc1cc(C)c2c(C3CC3)nn(C)c2n1 [Example 6.63, (S)-2-(3-cyclopropyl-1H-dimethyl-1H-pyrazolo[3,4-b]pyridin-6-yloxy)-N-(2-methyl-6,7-dihydro-5H-cyclopenta[b]pyridin-5-yl)acetamide] |  |  | 109 nM | 22 nM | 42 nM | 54 nM |
| Cc1ccc([C@H](C)NC(=O)COc2cc(C)c3c(C(C)C)nn(C)c3n2)cc1 [Example 6.26, (S)-2-(3-isopropyl-1,4-dimethyl-1H-pyrazolo[3,4-b]pyridin-6-yloxy)-N-(1-p-tolylethyl)acetamide] |  |  | 164 nM | 32 nM | 76 nM | 119 nM |
| Cc1ccc([C@H](C)NC(=O)COc2cc(C)c3c(-c4cnccn4)nn(C)c3n2)cc1 [Example 4.8, (S)-2-(1,4-dimethyl-3-(pyrazin-2-yl)-1H-pyrazolo[3,4-b]pyridin-6-yloxy)-N-(1-p-tolylethyl)acetamide] |  |  | 52 nM | 15 nM | 22 nM | 20 nM |
| COc1ccc([C@H](C)NC(=O)COc2cc(C(F)(F)F)c3c(C4CC4)nn(C)c3n2)cc1 [Example 6.15, (S)-2-(3-cyclopropyl-1-methyl-4-(trifluoromethyl)-1H-pyrazolo[3,4-b]pyridin-6-yloxy)-N-(1-(4-methoxyphenyl)ethyl)acetamide] |  |  | 160 nM | 12 nM | 37 nM | 146 nM |
| Cc1ccc([C@H](C)NC(=O)COc2cc(C)c3c(-c4cncs4)nn(C)c3n2)cc1 [Example 5.4, (S)-2-(1,4-dimethyl-3-(thiazol-5-yl)-1H-pyrazolo[3,4-b]pyridin-6-yloxy)-N-(1-p-tolylethyl)acetamide] |  |  | 179 nM | 11 nM | 26 nM | 46 nM |
| COc1ccc(C(C)NC(=O)COc2cc(C(F)F)c3c(-c4ccccc4)nn(C)c3n2)cn1 (stereo not shown) [Example 6.22, 2-(4-(difluoromethyl)-1-methyl-3-phenyl-1H-pyrazolo[3,4-b]pyridin-6-yloxy)-N-(1-(6-methoxypyridin-3-yl)ethyl)acetamide] |  |  | 175 nM | 37 nM | 42 nM | 56 nM |
| Cc1ccc([C@H](C)NC(=O)COc2cc(C)c3c(-c4nc(C)cs4)nn(C)c3n2)cc1 [Example 5.1, (S)-2-((1,4-dimethyl-3-(4-methylthiazol-2-yl)-1H-pyrazolo[3,4-b]pyridin-6-yl)oxy)-N-(1-(p-tolyl)ethyl)acetamide] |  |  | 10 nM | 10 nM | 3 nM | 4 nM |
| COc1ccc([C@H](C)NC(=O)COc2cc(C(F)F)c3c(-c4cc(C)oc4C)nn(C)c3n2)cc1 [Example 6.39, (S)-2-(4-(difluoromethyl)-3-(2,5-dimethylfuran-3-yl)-1-methyl-1H-pyrazolo[3,4-b]pyridin-6-yloxy)-N-(1-(4-methoxyphenyl)ethyl)acetamide] |  |  | 15 nM | 46 nM | 65 nM | 20 nM |
| Cc1ccc2c(n1)CCC2NC(=O)COc1cc(C)c2c(C3CC3)nn(C)c2n1 (stereo not shown) [Example 6.61, 2-(3-cyclopropyl-1,4-dimethyl-1H-pyrazolo[3,4-b]pyridin-6-yloxy)-N-(2-methyl-6,7-dihydro-5H-cyclopenta[b]pyridin-5-yl)acetamide] |  |  | 227 nM | 93 nM | 159 nM | 157 nM |
| COc1ccc2c(c1)CC[C@@H]2NC(=O)C(C)Oc1cc(C)c2c(C3CC3)nn(C)c2n1 (single isomer, unassigned) [Example 6.71, (R or S)-2-(3-cyclopropyl-1,4-dimethyl-1H-pyrazolo[3,4-b]pyridin-6-yloxy)-N-((S)-5-methoxy-2,3-dihydro-1H-inden-1-yl)propanamide] |  |  | 348 nM | 55 nM | 95 nM | 589 nM |
| COc1cc2c(cc1OC)C(NC(=O)COc1cc(C)c3c(C4CC4)nn(C)c3n1)CC2 (stereo not shown) [Example 7.1, 2-(3-cyclopropyl-1,4-dimethyl-1H-pyrazolo[3,4-b]pyridin-6-yloxy)-N-(5,6-dimethoxy-2,3-dihydro-1H-inden-1-yl)acetamide] |  |  | 140 nM | 52 nM | 65 nM | 55 nM |
| Cc1ccc([C@H](C)NC(=O)COc2cc(C)c3c(-c4ncccc4F)nn(C)c3n2)cc1 [Example 4.1, (S)-2-((3-(3-fluoropyridin-2-yl)-1,4-dimethyl-1H-pyrazolo[3,4-b]pyridin-6-yl)oxy)-N-(1-(p-tolyl)ethyl)acetamide] |  |  | 133 nM | 35 nM | 22 nM | 27 nM |
| Cc1ccc([C@H](C)NC(=O)COc2cc(C)c3c(-c4ncc(C)s4)nn(C)c3n2)cc1 [Example 5.6, (S)-2-(1,4-dimethyl-3-(5-methylthiazol-2-yl)-1H-pyrazolo[3,4-b]pyridin-6-yloxy)-N-(1-p-tolylethyl)acetamide] |  |  | 6 nM | 5 nM | 3 nM | 4 nM |
| COc1ccc([C@H](C)NC(=O)COc2cc(C)c3c(-c4ccoc4C)nn(C)c3n2)cc1 [Example 6.34, (S)-2-(1,4-dimethyl-3-(2-methylfuran-3-yl)-1H-pyrazolo[3,4-b]pyridin-6-yloxy)-N-(1-(4-methoxyphenyl)ethyl)acetamide] |  |  | 103 nM | 113 nM | 188 nM | 70 nM |
| Cc1cc(OCC(=O)NC(C)c2cnc3[nH]ccc3c2)nc2c1c(C1CC1)nn2C (stereo not shown) [Example 6.57, N-(1-(1H-pyrrolo[2,3-b]pyridin-5-yl)ethyl)-2-(3-cyclopropyl-1,4-dimethyl-1H-pyrazolo[3,4-b]pyridin-6-yloxy)acetamide] |  |  | 658 nM | 77 nM | 170 nM | 358 nM |
